Experimental data as given in patent US10029017B2, “Pretargeted activatable cell penetrating peptide with intracellularly releasable prodrug” (The Regents of the University of California, priority 2013, dated 2018).
Non-standard residues stand in square brackets, D forms with d. Residues, ends and D or L forms follow the SMILES beside them. *: point of attachment. Dolaproine = CO[C@@H]([C@@H]1CCCN1)[C@@H](C)C(=O)O; Dil = CC[C@H](C)[C@H](NC)[C@@H](CC(=O)O)OC; X1 = C[C@@H](N*)[C@@H](O)c1ccccc1; NMeV = CN[C@H](C(=O)O)C(C)C

Tested on: MDA-MB-231 orthotopic xenografts
Assay: chemotherapy of MDA-MB-231 orthotopic xenografts: tumor volume, regression, survival
Format: in vivo, mice
Conditions: 0.32 mg/kg equivalents of MMAE, equimolar free MMAE
From the text: A) Tumor growth curve obtained from MDA-MB-231 bilateral tumor bearing mice that were either intravenously injected with 6.5 nanomoles of MMAE (red line), cRAD-PEG6-MMAE (green line), cRGD-MMP-MMAE (dark blue) or no injection (no treatment, light blue).
Monomethyl auristatin E (MMAE), a potent chemotherapeutic inhibitor of tubulin polymerization, was conjugated to an ACPP via a peptide linker, Val-Cit-(p-amido)benzyloxycarbonyl, which is cleavable by cathepsin B, an endolysosomal protease. Mice harboring MDA-MB-231 orthotopic xenografts were dosed with cRGD-ACPP-MMAE at 0.2 mg/kg equivalents MMAE (6.5 nanomoles peptide) every three days for a total of four doses and tumor volumes were measured at regular intervals. […] When the dose was increased to 0.32 mg/kg equivalents of MMAE, the dual targeted peptide caused 4 out of 8 tumors to regress completely, compared to 2 out of 8 for equimolar free MMAE. The ACPPs caused no weight loss or gross toxicity. […] Animal weights are illustrated in FIGS. 7, 9, and 11.

CC[C@H](C)[C@@H]([C@@H](CC(=O)N1CCC[C@H]1[C@H](OC)[C@@H](C)C(=O)N[C@H](C)[C@@H](O)c1ccccc1)OC)N(C)C(=O)[C@@H](NC(=O)[C@@H](NC)C(C)C)C(C)C [MMAE, Monomethyl auristatin E] (H-[NMeV]V[Dil][Dolaproine]-X1)
tumors that regressed completely: 2 out of 8
